Measured values as given in patent US9381191B2, “Imidazopyridine derivatives useful in treating diabetes” (METABRAIN RESEARCH, priority 2012, dated 2016).
Where a name gives a salt, the structure may show the parent alone.

System: INS-1 cells
Assay: Stimulation test of insulin secretion by INS-1 cells
Type: cell-based
Conditions: Rattus norvegicus, INS1, 1 h, insulin secretion by INS-1 cells in response to glucose; for insulin secretion, % of control at 10 µM: read-out: HGP % of ctrl @ 10 μM; for insulin secretion, % of control at 50 µM: read-out: HGP % of ctrl @ 50 μM
Protocol: The different compounds were tested on an INS-1 beta-pancreatic line in order to evaluate their capability of potentializing the insulin secretion in response to glucose. Very briefly, the cells are cultivated in a culture medium, RPMI 1640 with 10 mM glucose containing 1 mM of sodium pyruvate, 50 μM of 2-mercaptoethanol, 2 mM of glutamine, 10 mM of HEPES, 100 IU/ml of penicillin, 100 μg/ml of streptomycin and 10% of inactivated fetal calf serum, as described by Asfari et al.. For the insulin secretion test, the INS-1 cells are sown and cultivated in 96-well plates. After 3 days of cultivation at 37° C. in a humid atmosphere (95% air/5% CO2), the medium is removed and the cells are incubated for 16 h in a medium containing 5 mM of glucose and 1% of inactivated fetal calf serum. On the day of the test, the cells are washed with a Krebs buffer (pH 7.4) containing 0.1% of bovine albumin and then pre-incubated for 30 min at 37° C. in this same buffer containing 2.8 mM of glucose. Finally, the cells are again washed with Krebs buffer and then incubated for 1 h in the buffer of the secretion test (Krebs, pH 7.4 containing 0.1% of bovine albumin and 3.5 mM of glucose and molecules to be evaluated). At the end of the test, the cell supernatant is recovered in order to measure therein the secreted insulin, by means of an ELISA kit using a rat anti-insulin antibody (ELISA Alpco Cat no. 80-INSRTH-E10). Each condition is tested in triplicate. The 3.5 mM glucose, the 10^−7M GLP-1 and the Forskoline 10^−7/IBMX 10^−5M mixtures are used as positive controls of the test. A compound stimulates the secretion of insulin if this factor is greater than or equal to 130% of the control for a given glucose dose.

Compound	insulin secretion, % of control at 10 µM [%]	insulin secretion, % of control at 50 µM [%]
CCOC(=O)COCc1nc2ccccn2c1C#Cc1ccc(C)cc1 [Derivative 2, ethyl 2-((3-(p-tolylethynyl)-imidazo[1,2-a]pyridin-2-yl)-methoxy)acetate]	127	333
CCOC(=O)COCc1nc2ccccn2c1C#Cc1ccc([N+](=O)[O-])cc1 [Derivative 5, ethyl 2-((3-((4-nitrophenyl)-ethynyl)imidazo[1,2-a]pyridin-2-yl)methoxy)acetate]	180	195
CCOC(=O)CN(C)Cc1nc2ccc(Cl)cn2c1C#Cc1cccc(C(F)(F)F)c1 [Derivative 102, ethyl 2-[[6-chloro-3-[2-[3-(trifluoromethyl)phenyl]ethynyl]imidazo[1,2-a]pyridin-2-yl]methyl-methyl-amino]acetate]	176	107
CCOC(=O)[C@@H](N)CSCc1nc2ccccn2c1C#Cc1cccc(C(F)(F)F)c1 [Derivative 113, ethyl (2R)-2-amino-3-[[3-[2-[3-(trifluoromethyl)phenyl]ethynyl]imidazo[1,2-a]pyridin-2-yl]methyl-sulfanyl]propanoate]	136	112
COc1cccn2c(C#Cc3cccc(C(F)(F)F)c3)c(CSCCO)nc12 [Derivative 130, 2-[[8-methoxy-3-[2-[3-(trifluoromethyl)phenyl]ethynyl]imidazo[1,2-a]pyridin-2-yl]methylsulfanyl]ethanol]	150	114
CCOC(=O)COCc1nc2ccccn2c1C#Cc1ccsc1 [Derivative 9, ethyl 2-((3-(thiophen-3-ylethynyl)-imidazo[1,2-a]pyridin-2-yl)methoxy)acetate]	116	175
CCOC(=O)CN(C)Cc1nc2ccccn2c1C#Cc1cccc(C(F)(F)F)c1 [Derivative 101, ethyl 2-[methyl-[[3-[2-[3-(trifluoromethyl)phenyl]ethynyl]imidazo[1,2-a]pyridin-2-yl]-methyl]amino]acetate hydrochloride]	163	111
O=C(O)COCc1nc2ccccn2c1C#Cc1ccc(OC(F)(F)F)c(F)c1 [Derivative 39, 2-((3-((3-fluoro-4-(trifluoro-methoxy)phenyl)ethynyl)imidazo [1,2-a]pyridin-2-yl)methoxy)acetic acid]	121	137
COC(=O)CN(C)Cc1nc2ccccn2c1C#Cc1cccc(C(F)(F)F)c1 [Derivative 72, methyl 2-(methyl((3-((3-(trifluoromethyl)-phenyl)ethynyl)-imidazo[1,2-a]pyridin-2-yl)methyl)amino)acetate]	172	151
